Values of other authors as cited in patent US9445940B2, “System and method for inducing hypothermia with control and determination of catheter pressure” (Zoll Circulation, Inc., priority 2003, dated 2016).

Test system: shivering threshold
Details: stated as believed, no experiment by the applicant

CCOC(=O)C1(c2ccccc2)CCN(C)CC1 [Meperidine]
decrease of shivering threshold relative to vasoconstriction threshold: twice as much as the vasoconstriction threshold
